A word on the CC50: it is the concentration giving 50% cytotoxicity. Read a high CC50 as lower toxicity to the cells. Broadly, the IC50 is the concentration that inhibits the measured activity by half. Higher therefore signals lower potency. As usually defined, the MIC is the lowest concentration that inhibits growth of the organism.

Active and inactive are the calls of the source. The rule behind the calls is not given here.

The subject of one assay is HepG2. Description: Cytotoxicity against human HepG2 cells incubated overnight by Celltiter aqueous one solution cell proliferation assay. The assay is classed as functional.
In another assay the target is Phosphoheptose isomerase (Escherichia coli (strain K12), UniProt P63224). On the set-up: species or system K96243.
Assay [1] deals with Escherichia coli. The assay can be described thus: Potentiation of erythromycin induced antibacterial activity against Escherichia coli C7 (018:K1:H7) assessed as erythromycin MIC incubated overnight by two fold serial dilution assay. The assay is classed as functional.
For assay [2], the system named is Escherichia coli. Description: Antibacterial activity in Escherichia coli C7 (018:K1:H7) assessed as reduction in bacterial growth at 300 uM measured after 24 hrs by time-kill kinetics assay. The format is functional, organism-based.
Assay [3] concerns Escherichia coli. The assay can be described thus: Potentiation of rifampicin induced antibacterial activity against Escherichia coli C7 (018:K1:H7) assessed as rifampicin MIC incubated overnight by two fold serial dilution assay. The format is functional.

Phosphoheptose isomerase, sequence (P63224 whole entry, looked up): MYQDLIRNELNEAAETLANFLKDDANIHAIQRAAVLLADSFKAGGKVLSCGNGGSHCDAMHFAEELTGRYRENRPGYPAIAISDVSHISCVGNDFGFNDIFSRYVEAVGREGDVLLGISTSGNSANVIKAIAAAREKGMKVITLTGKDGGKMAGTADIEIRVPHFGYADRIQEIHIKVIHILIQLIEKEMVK

`O=CN(O)C[C@H](O)[C@H](O)[C@H](O)CCP(=O)(O)O` had a CC50 with HepG2 above 1 mM.

The molecule `O=CN(O)C[C@H](O)[C@H](O)[C@H](O)COP(=O)(O)O` displayed an IC50 at Phosphoheptose isomerase of 2 nM. Further, the MIC with Escherichia coli [1] was determined as 1 µg/mL; with Escherichia coli [3], 0.25 µg/mL. In the assay on HepG2, this molecule registered a half-maximal cytotoxic concentration (CC50) above 1 mM. In the assay with Escherichia coli [2], the result was inactive.

Values taken from ChEMBL document CHEMBL5543143, “Potentiating Activity of GmhA Inhibitors on Gram-Negative Bacteria” (J Med Chem, 2024).
